The target of assay [1] is T1, Type-1 angiotensin II receptor (Homo sapiens) (UniProt P30556).
T1 sequence (whole entry): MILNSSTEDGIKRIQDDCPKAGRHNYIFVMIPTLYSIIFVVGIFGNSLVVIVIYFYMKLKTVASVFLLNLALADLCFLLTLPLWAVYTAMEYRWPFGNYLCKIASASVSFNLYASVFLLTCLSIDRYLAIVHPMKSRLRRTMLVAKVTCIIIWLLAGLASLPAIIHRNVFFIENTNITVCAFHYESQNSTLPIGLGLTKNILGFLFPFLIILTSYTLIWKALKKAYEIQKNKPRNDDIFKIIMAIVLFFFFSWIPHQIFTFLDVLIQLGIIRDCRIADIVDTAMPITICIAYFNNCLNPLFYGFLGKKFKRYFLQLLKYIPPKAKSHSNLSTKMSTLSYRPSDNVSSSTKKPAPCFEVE
The experiment in a line: Binding affinity to human AT1 receptor expressed in CHO cells assessed as dissociation rate constant at 1.5 nM incubated for 60 mins followed by compound washout in presence of losartan. The assay is classed as cell-based.

Assay [2] addresses T1, Type-1 angiotensin II receptor (Homo sapiens). The experiment in a line: Displacement of [3H]-candesartan from human AT1 receptor expressed in CHO cells assessed as residence time at 1.5 nM pre-incubated with cells followed by compound washout and subsequent addition of [3H]-candesartan up to 60 mins. The assay is classed as cell-based. In general terms: Loss of bound radioactivity is the signal in a displacement assay; it reports binding, not function.

Assay [3] has the same target. Description: Antagonist activity at human AT1 receptor expressed in CHO cells assessed as reduction in angiotensin 2-induced inositol phosphate accumulation by measuring dissociation rate constant preincubated with cells followed by compound washout in presence of losartan and subsequent addition of angiotensin 2 for 5 mins. The assay is classed as functional, cell-based.

For assay [4] the target is unchanged. The experiment in a line: Binding affinity to human AT1 receptor expressed in CHO cells assessed as residence time at 1.5 nM incubated for 60 mins followed by compound washout. The assay is classed as cell-based.
For assay [5] the target is unchanged. The experiment in a line: Antagonist activity at human AT1 receptor expressed in CHO cells assessed as reduction in angiotensin 2-induced inositol phosphate accumulation by measuring residence time constant preincubated with cells followed by compound washout in presence of losartan and subsequent addition of angiotensin 2 for 5 mins. The assay is classed as functional, cell-based.

For assay [6] the target is unchanged. The experiment in a line: Binding affinity to human AT1 receptor expressed in CHO cells assessed as residence time at 1.5 nM incubated for 60 mins followed by compound washout in presence of losartan. The assay is classed as cell-based.
Assay [7] has the same target. Description: Antagonist activity at human AT1 receptor expressed in CHO cells assessed as reduction in angiotensin 2-induced inositol phosphate accumulation by measuring residence time constant preincubated with cells followed by compound washout and subsequent addition of angiotensin 2 for 5 mins. The assay is classed as functional, cell-based.
Assay [8] has the same target. The experiment in a line: Binding affinity to human AT1 receptor expressed in CHO cells assessed as residence time at 1.5 nM incubated for 60 mins measured after isotopic dilution. The assay is classed as cell-based.
The target is the same in assay [9]. Description: Displacement of [3H]-candesartan from human AT1 receptor expressed in CHO cells assessed as dissociation rate constant at 1.5 nM pre-incubated with cells followed by compound washout and subsequent addition of [3H]-candesartan up to 60 mins. The assay is classed as cell-based.
Assay [10] has the same target. Description: Binding affinity to human AT1 receptor expressed in CHO cells assessed as dissociation rate constant at 1.5 nM incubated for 60 mins followed by compound washout. The assay is classed as cell-based.
The target is the same in assay [11]. Description: Antagonist activity at human AT1 receptor expressed in CHO cells assessed as reduction in angiotensin 2-induced inositol phosphate accumulation by measuring dissociation rate constant preincubated with cells followed by compound washout and subsequent addition of angiotensin 2 for 5 mins. The assay is classed as functional, cell-based.
Assay [12] has the same target. Description: Binding affinity to human AT1 receptor expressed in CHO cells assessed as dissociation rate constant at 1.5 nM incubated for 60 mins measured after isotopic dilution. The assay is classed as cell-based.
For assay [13] the target is unchanged. The experiment in a line: Displacement of [3H]-candesartan from human AT1 receptor expressed in CHO cells assessed as residence time at 100 nM pre-incubated with cells followed by compound washout and subsequent addition of [3H]-candesartan up to 60 mins. The assay is classed as cell-based.
For assay [14] the target is unchanged. Description: Binding affinity to human AT1 receptor expressed in CHO cells assessed as residence time at 3 nM incubated for 60 mins followed by compound washout. The assay is classed as cell-based.
Assay [15] shares this target. The experiment in a line: Binding affinity to human AT1 receptor expressed in CHO cells assessed as dissociation rate constant at 3 nM incubated for 60 mins followed by compound washout in presence of losartan. The assay is classed as cell-based.
Assay [16] has the same target. Description: Binding affinity to human AT1 receptor expressed in CHO cells assessed as dissociation rate constant at 3 nM incubated for 60 mins measured after isotopic dilution. The assay is classed as cell-based.
The target is the same in assay [17]. Description: Binding affinity to human AT1 receptor expressed in CHO cells assessed as residence time at 3 nM incubated for 60 mins measured after isotopic dilution. The assay is classed as cell-based.
Assay [18] shares this target. Description: Binding affinity to human AT1 receptor expressed in CHO cells assessed as dissociation rate constant at 3 nM incubated for 60 mins followed by compound washout. The assay is classed as cell-based.
Assay [19] shares this target. The experiment in a line: Displacement of [3H]-candesartan from human AT1 receptor expressed in CHO cells assessed as dissociation rate constant at 100 nM pre-incubated with cells followed by compound washout and subsequent addition of [3H]-candesartan up to 60 mins. The assay is classed as cell-based.
Assay [20] has the same target. Description: Binding affinity to human AT1 receptor expressed in CHO cells assessed as residence time at 3 nM incubated for 60 mins followed by compound washout in presence of losartan. The assay is classed as cell-based.

SMILES strings stand for the structures.

With `CCOc1nc2cccc(C(=O)O)c2n1Cc1ccc(-c2ccccc2-c2nnn[nH]2)cc1`, the K in assay [1] was 0.005 min⁻¹; in assay [3], 0.003 min⁻¹; in assay [9], 0.004 min⁻¹; in [10], 0.001 min⁻¹; in assay [11], 0.002 min⁻¹; in [12], 0.006 min⁻¹. Also, the TIME is 3.65 h in assay [2]; 16.6 h in assay [4]; 4.45 h in assay [5]; 3.62 h in [6]; 7.57 h in assay [7]; 2.7 h in assay [8].

`CCCCc1nc(Cl)c(C(=O)O)n1Cc1ccc(-c2ccccc2-c2nn[nH]n2)cc1`: the K was determined as 0.021 min⁻¹ in [3] and 0.016 min⁻¹ in assay [11]. Besides, the results for the TIME in assay [5] and in [7] were 0.8 h and 1.05 h, respectively.

Turning to `CCCCC1=NC2(CCCC2)C(=O)N1Cc1ccc(-c2ccccc2-c2nnn[nH]2)cc1`, the TIME in [13] is 0.417 h; in [14] it was 0.15 h; in assay [5] it was 0.283 h; in [17], 0.167 h; in [7] it was 0.433 h; in assay [20] it was 0.15 h. Further, the K stood at 0.058 min⁻¹ in assay [3]; 0.101 min⁻¹ in assay [15]; 0.104 min⁻¹ in assay [16]; 0.039 min⁻¹ in assay [11]; 0.128 min⁻¹ in assay [18]; 0.04 min⁻¹ in [19].

Take `CCCCC(=O)N(Cc1ccc(-c2ccccc2-c2nn[nH]n2)cc1)[C@@H](C(=O)O)C(C)C`: the K in [1] was 0.049 min⁻¹; in [10] it was 0.028 min⁻¹; in assay [12], 0.041 min⁻¹. The TIME in assay [4] is 0.6 h; in [6], 0.333 h; in assay [8] it was 0.417 h.

The record behind these values is ChEMBL document CHEMBL4052724, “Influence of the cellular environment on ligand binding kinetics at membrane-bound targets” (Bioorg Med Chem Lett, 2017).
